Results: patent publication US8653263B2 (Janssen Pharmaceutica, priority 2009, dated 2014)
pKi: −log10 of the molar value.

Molecular target: human orexin-2 receptor (Homo sapiens (Human), UniProt O43614)
Assay: Human orexin 2 receptor radioligand binding ([3H]-EMPA competition)
Conditions: HEK293 cells stably expressing human orexin-2 receptor; [3H]-EMPA 5 nM final; apparent Ki=IC50/(1+C/Kd), Kd=2 nM; read-out: OR 2 Ki

human orexin-2 receptor, sequence (O43614 whole entry): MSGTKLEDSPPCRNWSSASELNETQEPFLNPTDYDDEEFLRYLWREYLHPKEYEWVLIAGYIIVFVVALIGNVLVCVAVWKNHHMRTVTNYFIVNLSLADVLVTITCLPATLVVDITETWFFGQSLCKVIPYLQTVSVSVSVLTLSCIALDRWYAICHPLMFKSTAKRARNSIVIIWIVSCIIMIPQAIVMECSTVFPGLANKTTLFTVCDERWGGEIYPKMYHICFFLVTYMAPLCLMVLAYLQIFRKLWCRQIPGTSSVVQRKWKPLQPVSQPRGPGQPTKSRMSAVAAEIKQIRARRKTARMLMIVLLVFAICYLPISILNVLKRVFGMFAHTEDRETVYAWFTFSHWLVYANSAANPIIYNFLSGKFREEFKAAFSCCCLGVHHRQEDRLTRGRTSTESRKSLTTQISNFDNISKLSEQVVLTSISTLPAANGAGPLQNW

Going from `COc1cccc(C(=O)N2CC3CN(c4nc(C)cc(C)n4)CC3C2)c1-n1ccnn1` (stereo not shown) [Example 286, 2-(4,6-Dimethylpyrimidin-2-yl)-5-{[3-methoxy-2-(1H-1,2,3-triazol-1-yl)phenyl]carbonyl}octahydropyrrolo[3,4-c]pyrrole] to `Cc1cc(C)nc(N2CC3CN(C(=O)c4cccc(F)c4-n4ccnn4)CC3C2)n1` (stereo not shown) [Example 287, 2-(4,6-Dimethylpyrimidin-2-yl)-5-{[3-fluoro-2-(1H-1,2,3-triazol-1-yl)phenyl]carbonyl}octahydropyrrolo[3,4-c]pyrrole], the pKi rises from 5.00 to 5.85 (0.85 log units).

First: COc1ccc(C(=O)N2CC3CN(c4nc(C)cc(C)n4)CC3C2)c(-n2ccnn2)c1 (stereo not shown) [Example 289]
Second: Cc1cc(C)nc(N2CC3CN(C(=O)c4ccc(C)nc4-n4ccnn4)CC3C2)n1 (stereo not shown) [Example 336, [5-(4,6-Dimethyl-pyrimidin-2-yl)-hexahydro-pyrrolo[3,4-c]pyrrol-2-yl]-(6-methyl-2-[1,2,3]triazol-1-yl-pyridin-3-yl)-methanone]
The pKi of the first is 0.80 log units lower: 5.74 for the first, 6.54 for the second.

Going from `Cc1nc(N2CC3CN(C(=O)c4ccccc4-n4nccn4)CC3C2)ncc1F` (stereo not shown) [Example 290, 2-(5-Fluoro-4-methylpyrimidin-2-yl)-5-{[2-(2H-1,2,3-triazol-2-yl)phenyl]carbonyl}octahydropyrrolo[3,4-c]pyrrole] to `O=C(c1ccccc1-n1nccn1)N1CC2CN(c3nc(Cl)ncc3F)CC2C1` (stereo not shown) [Example 291, 2-(2-Chloro-5-fluoropyrimidin-4-yl)-5-{[2-(2H-1,2,3-triazol-2-yl)phenyl]carbonyl}octahydropyrrolo[3,4-c]pyrrole], the pKi falls from 7.72 to 6.58 (1.14 log units).

First: Cc1cc(C(C)C)nc(N2CC3CN(C(=O)c4cc(C(C)C)ccc4-n4nccn4)CC3C2)n1 (stereo not shown) [Example 300, 2-{[5-(1-Methylethyl)-2-(2H-1,2,3-triazol-2-yl)phenyl]carbonyl}-5-[4-methyl-6-(1-methylethyl)pyrimidin-2-yl]octahydropyrrolo[3,4-c]pyrrole]
Second: Cc1cc(C)nc(N2CC3CN(C(=O)c4cccc5cccc(-n6nccn6)c45)CC3C2)n1 (stereo not shown) [Example 328, [5-(4,6-Dimethyl-pyrimidin-2-yl)-hexahydro-pyrrolo[3,4-c]pyrrol-2-yl]-(8-[1,2,3]triazol-2-yl-naphthalen-1-yl)-methanone]
The pKi of the first is 0.41 log units lower: 6.54 for the first, 6.95 for the second.

Going from `Cc1ncnc(N2CC3CN(C(=O)c4c(F)cccc4-n4nccn4)CC3C2)n1` (stereo not shown) [Example 303, 2-{[2-Fluoro-6-(2H-1,2,3-triazol-2-yl)phenyl]carbonyl}-5-(4-methyl-1,3,5-triazin-2-yl)octahydropyrrolo[3,4-c]pyrrole] to `Cc1nc(N2CC3CN(C(=O)c4ncccc4-n4nccn4)CC3C2)nc(C)c1F` (stereo not shown) [Example 325, 2-(5-Fluoro-4,6-dimethylpyrimidin-2-yl)-5-{[3-(2H-1,2,3-triazol-2-yl)pyridin-2-yl]carbonyl}octahydropyrrolo[3,4-c]pyrrole], the pKi rises from 5.77 to 7.80 (2.03 log units). The second binds more tightly here.

`Cc1nc(N2CC3CN(C(=O)c4ccccc4-c4nnc[nH]4)CC3C2)nc(C)c1C` (stereo not shown) [Example 305, 2-{[2-(4H-1,2,4-Triazol-3-yl)phenyl]carbonyl}-5-(4,5,6-trimethylpyrimidin-2-yl)octahydropyrrolo[3,4-c]pyrrole] and `Cc1nc(N2CC3CN(C(=O)c4ccccc4-c4ncn(C)n4)CC3C2)nc(C)c1C` (stereo not shown) [Example 311, 2-{[2-(1-Methyl-1H-1,2,4-triazol-3-yl)phenyl]carbonyl}-5-(4,5,6-trimethylpyrimidin-2-yl)octahydropyrrolo[3,4-c]pyrrole] are the same in pKi: 8.15 for the first, 8.15 for the second.

First: Cc1cc(C)nc(N2CC3CN(C(=O)c4ccccc4-c4nc(C)no4)CC3C2)n1 (stereo not shown) [Example 306, 2-(4,6-Dimethylpyrimidin-2-yl)-5-{[2-(3-methyl-1,2,4-oxadiazol-5-yl)phenyl]carbonyl}octahydropyrrolo[3,4-c]pyrrole]
Second: Cc1noc(-c2ccccc2C(=O)N2CC3CN(c4nc(C)c(C)c(C)n4)CC3C2)n1 (stereo not shown) [Example 309, 2-{[2-(3-Methyl-1,2,4-oxadiazol-5-yl)phenyl]carbonyl}-5-(4,5,6-trimethylpyrimidin-2-yl)octahydropyrrolo[3,4-c]pyrrole]
The pKi of the first is 0.74 log units lower: 7.41 for the first, 8.15 for the second.

Compared with `Cc1cc(C)nc(N2CC3CN(C(=O)c4ccccc4-c4ncn(C)n4)CC3C2)n1` (stereo not shown) [Example 308, 2-(4,6-Dimethylpyrimidin-2-yl)-5-{[2-(1-methyl-1H-1,2,4-triazol-3-yl)phenyl]carbonyl}octahydropyrrolo[3,4-c]pyrrole], `Cc1nc(N2CC3CN(C(=O)c4ccccc4-c4ncn(C)n4)CC3C2)nc(C)c1Cl` (stereo not shown) [Example 320, 2-(5-Chloro-4,6-dimethylpyrimidin-2-yl)-5-{[2-(1-methyl-1H-1,2,4-triazol-3-yl)phenyl]carbonyl}octahydropyrrolo[3,4-c]pyrrole] is 0.81 log units higher in pKi: 7.59 for the first, 8.40 for the second.

Going from `Cc1noc(-c2ccccc2C(=O)N2CC3CN(c4ncc(F)c(C)n4)CC3C2)n1` (stereo not shown) [Example 310, 2-(5-Fluoro-4-methylpyrimidin-2-yl)-5-{[2-(3-methyl-1,2,4-oxadiazol-5-yl)phenyl]carbonyl}octahydropyrrolo[3,4-c]pyrrole] to `Cc1noc(-c2ccccc2C(=O)N2CC3CN(c4nc(C)c(Cl)c(C)n4)CC3C2)n1` (stereo not shown) [Example 318, 2-(5-Chloro-4,6-dimethylpyrimidin-2-yl)-5-{[2-(3-methyl-1,2,4-oxadiazol-5-yl)phenyl]carbonyl}octahydropyrrolo[3,4-c]pyrrole], the pKi rises from 7.19 to 8.30 (1.11 log units). The second binds more tightly here.

Going from `Cc1nc(N2CC3CN(C(=O)c4ccccc4-c4ncn(C)n4)CC3C2)ncc1F` (stereo not shown) [Example 312, 2-(5-Fluoro-4-methylpyrimidin-2-yl)-5-{[2-(1-methyl-1H-1,2,4-triazol-3-yl)phenyl]carbonyl}octahydropyrrolo[3,4-c]pyrrole] to `CCc1c(C)nc(N2CC3CN(C(=O)c4ccccc4-c4ncn(C)n4)CC3C2)nc1C` (stereo not shown) [Example 322, 2-(5-Ethyl-4,6-dimethylpyrimidin-2-yl)-5-{[2-(1-methyl-1H-1,2,4-triazol-3-yl)phenyl]carbonyl}octahydropyrrolo[3,4-c]pyrrole], the pKi rises from 7.10 to 8.00 (0.90 log units).

`Cc1cc(C)nc(N2CC3CN(C(=O)c4c(F)cccc4-c4nc(C)no4)CC3C2)n1` (stereo not shown) [Example 315, 2-(4,6-Dimethylpyrimidin-2-yl)-5-{[2-fluoro-6-(3-methyl-1,2,4-oxadiazol-5-yl)phenyl]carbonyl}octahydropyrrolo[3,4-c]pyrrole] and `Cc1cccc(-c2cc(F)ccc2C(=O)N2CC3CN(c4nc(C)cc(C)n4)CC3C2)n1` (stereo not shown) [Example 335, (5-(4,6-dimethylpyrimidin-2-yl)hexahydropyrrolo[3,4-c]pyrrol-2(1H)-yl)(4-fluoro-2-(6-methylpyridin-2-yl)phenyl)methanone] are within 0.2 log units of each other in pKi: 7.42 for the first, 7.23 for the second.

Going from `Cc1noc(-c2ccccc2C(=O)N2CC3CN(c4nc(C)c5c(n4)CCC5)CC3C2)n1` (stereo not shown) [Example 319, 4-Methyl-2-[5-{[2-(3-methyl-1,2,4-oxadiazol-5-yl)phenyl]carbonyl}hexahydropyrrolo[3,4-c]pyrrol-2(1H)-yl]-6,7-dihydro-5H-cyclopenta[d]pyrimidine] to `Cc1cc(C)nc(N2CC3CN(C(=O)c4cccc5c4-c4ccccc4C5)CC3C2)n1` (stereo not shown) [Example 326, 2-(4,6-Dimethylpyrimidin-2-yl)-5-(9H-fluoren-4-ylcarbonyl)octahydropyrrolo[3,4-c]pyrrole], the pKi rises from 7.74 to 8.10 (0.36 log units).

Compared with `Cc1nc(N2CC3CN(C(=O)c4ncccc4-n4nccn4)CC3C2)nc(C)c1C` (stereo not shown) [Example 323, 2-{[3-(2H-1,2,3-Triazol-2-yl)pyridin-2-yl]carbonyl}-5-(4,5,6-trimethylpyrimidin-2-yl)octahydropyrrolo[3,4-c]pyrrole], `Cc1cc(C)nc(N2CC3CN(C(=O)c4c(-n5nccn5)ccc5c4OCO5)CC3C2)n1` (stereo not shown) [Example 327, [5-(4,6-Dimethyl-pyrimidin-2-yl)-hexahydro-pyrrolo[3,4-c]pyrrol-2-yl]-(5-[1,2,3]triazol-2-yl-benzo[1,3]dioxol-4-yl)methanone] is 0.61 log units lower in pKi: 7.60 for the first, 6.99 for the second.

First: COc1ccc(C(C)(C)C)cc1C(=O)N1CC2CN(c3nc(C)cc(C)n3)CC2C1 (stereo not shown) [Example 330, (5-tert-Butyl-2-methoxy-phenyl)-[5-(4,6-dimethyl-pyrimidin-2-yl)-hexahydro-pyrrolo[3,4-c]pyrrol-2-yl]-methanone]
Second: COc1cc2ccccc2cc1C(=O)N1CC2CN(c3nc(C)cc(C)n3)CC2C1 (stereo not shown) [Example 338, [5-(4,6-Dimethyl-pyrimidin-2-yl)-hexahydro-pyrrolo[3,4-c]pyrrol-2-yl]-(3-methoxy-naphthalen-2-yl)-methanone]
The pKi of the first is 0.79 log units lower: 5.00 for the first, 5.79 for the second. The second binds more tightly here.

Compared with `Cc1cc(C)nc(N2CC3CN(C(=O)c4cccc5c4OCCCO5)CC3C2)n1` (stereo not shown) [Example 334, (3,4-Dihydro-2H-benzo[b][1,4]dioxepin-6-yl)-[5-(4,6-dimethyl-pyrimidin-2-yl)-hexahydro-pyrrolo[3,4-c]pyrrol-2-yl]-methanone], `Cc1cc(C)nc(N2CC3CN(C(=O)c4ccc5ccccc5c4Br)CC3C2)n1` (stereo not shown) [Example 337, (1-Bromo-naphthalen-2-yl)-[5-(4,6-dimethyl-pyrimidin-2-yl)-hexahydro-pyrrolo[3,4-c]pyrrol-2-yl]-methanone] is 0.27 log units lower in pKi: 6.56 for the first, 6.29 for the second.

First: COc1c(C(=O)N2CC3CN(c4nc(C)cc(C)n4)CC3C2)ccc2ccccc12 (stereo not shown) [Example 340, [5-(4,6-Dimethyl-pyrimidin-2-yl)-hexahydro-pyrrolo[3,4-c]pyrrol-2-yl]-(1-methoxy-naphthalen-2-yl)-methanone]
Second: Cc1ccnc(-c2cc(F)ccc2C(=O)N2CC3CN(c4nc(C)cc(C)n4)CC3C2)c1 (stereo not shown) [Example 343, (5-(4,6-Dimethylpyrimidin-2-yl)hexahydropyrrolo[3,4-c]pyrrol-2(1H)-yl)(4-fluoro-2-(4-methylpyridin-2-yl)phenyl)methanone]
The pKi of the first is 1.62 log units lower: 5.82 for the first, 7.44 for the second.

`CCCOc1cccnc1C(=O)N1CC2CN(c3nc(C)cc(C)n3)CC2C1` (stereo not shown) [Example 344, (5-(4,6-dimethylpyrimidin-2-yl)hexahydropyrrolo[3,4-c]pyrrol-2(1H)-yl)(3-propoxypyridin-2-yl)methanone] was tested, and the pKi was 5.82.

Same assay, conditions: read-out: OR 2 Ki

`Cc1nc(N2CC3CN(C(=O)c4ccccc4-c4ncn(C)n4)CC3C2)ncc1Cl` (stereo not shown) [Example 321, 2-(5-Chloro-4-methylpyrimidin-2-yl)-5-{[2-(1-methyl-1H-1,2,4-triazol-3-yl)phenyl]carbonyl}octahydropyrrolo[3,4-c]pyrrole] was tested, and the pKi was 7.54.
